This is an account of results in patent US20180244611A1, “Modulators of the Cystic Fibrosis Transmembrane Conductance Regulator Protein and Methods of Use” (AbbVie S.à.r.l., priority 2017, published 2018).

For assay [1], the target named is T1, F508delCFTR (Homo sapiens, UniProt P13569, DEL508-508).
T1 construct: expressed in transfected cells; host or cells: CFBE41o- human lung-derived epithelial cells (CFBE41o-F508delCFTR-HRP), doxycycline-inducible
As to the kind of experiment: Cell Surface Expression-Horse Radish Peroxidase (CSE-HRP) assay, test compound with co-corrector.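 For Maximum % activity (with co-corrector): percent of 2 µM positive control corrector over DMSO; co-corrector is that same compound.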 The class given is cell-based. The conditions noted are these: for EC50: CSE-HRP assay, test compound with 2 μM co-corrector; for Maximum % activity (with co-corrector): maximum at any tested concentration, normalized to on-plate positive control, with 2 μM co-corrector. A digest of the protocol: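 CFBE41o- cells expressing F508delCFTR with HRP in the fourth exofacial loop, induced with 0.5 μg/mL doxycycline for 72 h, then treated 18-24 h at 33° C. with compound (8 points, top 20 μM, 3-fold) plus 2 μM co-corrector. Surface HRP read by luminol luminescence; activity normalised to positive control, EC50 from variable-slope sigmoidal fit.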

Assay [2] has as its target T1, F508delCFTR. In words: Cell Surface Expression-Horse Radish Peroxidase (CSE-HRP) assay, test compound without co-corrector.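 For Emax: percent of on-plate 2 µM positive control corrector response over DMSO.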 The class given is cell-based. The conditions noted are these: for EC50: CSE-HRP assay, test compound without co-corrector; for Emax: maximum at any tested concentration, normalized to on-plate positive control, without co-corrector. The method, boiled down:
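CFBE41o- cells expressing F508delCFTR with HRP in the fourth exofacial loop, induced with 0.5 μg/mL doxycycline for 72 h at 37° C, then exposed to compound alone for 18-24 h at 33° C, 8-point 3-fold series from 20 μM. Surface HRP read by luminol luminescence, normalized to positive corrector control versus DMSO; EC50 from variable-slope sigmoidal fit of three replicate plates.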

Where only a bound is given, the exact number is not on record here.

T1 sequence (P13569 with tags, fused parts or gaps DEL508-508): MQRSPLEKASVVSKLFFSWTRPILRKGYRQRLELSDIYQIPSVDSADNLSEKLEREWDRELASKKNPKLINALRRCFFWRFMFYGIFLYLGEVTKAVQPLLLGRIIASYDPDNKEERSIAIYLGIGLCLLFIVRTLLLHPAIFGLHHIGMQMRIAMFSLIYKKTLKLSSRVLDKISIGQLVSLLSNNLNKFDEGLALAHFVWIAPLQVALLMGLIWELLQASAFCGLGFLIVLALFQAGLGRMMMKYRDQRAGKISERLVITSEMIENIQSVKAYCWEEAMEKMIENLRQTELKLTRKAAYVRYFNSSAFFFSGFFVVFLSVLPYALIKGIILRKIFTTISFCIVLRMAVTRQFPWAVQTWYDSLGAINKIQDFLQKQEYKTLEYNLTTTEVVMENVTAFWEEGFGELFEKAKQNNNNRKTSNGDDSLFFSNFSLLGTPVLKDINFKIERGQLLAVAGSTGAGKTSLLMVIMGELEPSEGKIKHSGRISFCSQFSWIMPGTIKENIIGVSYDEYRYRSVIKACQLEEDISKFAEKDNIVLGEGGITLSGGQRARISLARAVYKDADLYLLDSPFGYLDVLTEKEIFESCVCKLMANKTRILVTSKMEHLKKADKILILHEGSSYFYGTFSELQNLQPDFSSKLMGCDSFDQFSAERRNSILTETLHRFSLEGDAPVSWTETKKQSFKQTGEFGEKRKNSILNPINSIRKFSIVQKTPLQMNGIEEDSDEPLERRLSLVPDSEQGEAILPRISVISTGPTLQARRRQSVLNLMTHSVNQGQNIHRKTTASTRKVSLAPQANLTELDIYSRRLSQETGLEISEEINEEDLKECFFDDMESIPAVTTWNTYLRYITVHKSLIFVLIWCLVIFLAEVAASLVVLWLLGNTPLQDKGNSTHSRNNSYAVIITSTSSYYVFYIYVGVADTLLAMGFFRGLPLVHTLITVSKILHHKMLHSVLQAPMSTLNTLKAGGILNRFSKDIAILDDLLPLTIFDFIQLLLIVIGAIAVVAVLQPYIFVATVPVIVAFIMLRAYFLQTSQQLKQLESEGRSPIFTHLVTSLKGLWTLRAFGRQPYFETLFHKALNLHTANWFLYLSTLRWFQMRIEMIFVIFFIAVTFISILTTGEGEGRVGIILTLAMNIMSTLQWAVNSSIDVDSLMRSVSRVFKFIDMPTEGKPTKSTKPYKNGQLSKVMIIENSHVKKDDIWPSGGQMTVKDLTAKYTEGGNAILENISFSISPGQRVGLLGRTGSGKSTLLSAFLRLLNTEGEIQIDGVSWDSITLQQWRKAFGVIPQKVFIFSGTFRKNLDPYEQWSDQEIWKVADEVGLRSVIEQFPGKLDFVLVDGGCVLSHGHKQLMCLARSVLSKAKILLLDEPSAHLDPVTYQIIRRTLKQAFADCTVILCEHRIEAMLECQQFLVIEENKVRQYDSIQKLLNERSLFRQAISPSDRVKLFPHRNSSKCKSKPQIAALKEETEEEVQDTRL

For the molecule `CCC1(C(=O)NS(=O)(=O)c2c(Cl)nc3sccn23)CCc2c(Cl)cccc21` (centres unmarked) [III-134], at F508delCFTR [1], the EC50 was ≥ 10 µM and the “Maximum % activity (with co-corrector)” value is given as “+ (<150)”. On F508delCFTR [2], the EC50 was ≥ 10 µM and the Emax is < 50%.

For the molecule `CCC1(C(=O)NS(=O)(=O)c2ncccc2C(=O)N(C)C)CCc2c(Cl)cccc21` (centres unmarked) [III-135], on F508delCFTR [1], the EC50 is ≥ 10 µM and the “Maximum % activity (with co-corrector)” value is “+ (<150)”. Moreover, at F508delCFTR [2], the EC50 was ≥ 10 µM and the Emax is < 50%.

Take `CCC1(C(=O)NS(=O)(=O)C2CCCCC2)CCc2c(Cl)cccc21` (centres unmarked) [III-136]: on F508delCFTR [1], the EC50 is ≥ 10 µM and the “Maximum % activity (with co-corrector)” value was “+ (<150)”. In addition, at F508delCFTR [2], the EC50 was ≥ 10 µM and the Emax was < 50%.

`CCC1(C(=O)NS(=O)(=O)c2cnccc2N2CCN(C(C)C)CC2)CCc2c(Cl)cccc21` (centres unmarked) [III-137]: on F508delCFTR [1], the EC50 was ≥ 10 µM and the “Maximum % activity (with co-corrector)” value is “+ (<150)”. Moreover, at F508delCFTR [2], the EC50 was ≥ 10 µM and the Emax is < 50%.

As to `CCC1(C(=O)NS(=O)(=O)c2ccccc2OCCN2CCCCC2)CCc2c(Cl)cccc21` (centres unmarked) [III-138], on F508delCFTR [1], the EC50 is 3 to 10 µM; the “Maximum % activity (with co-corrector)” value was “++ (≥150 and <350)”. Moreover, on F508delCFTR [2], the EC50 was in the range of 3 to 10 µM and the Emax was < 50%.

Consider `CCC1(C(=O)NS(=O)(=O)c2ccc(C)cc2)CCc2c(Cl)cccc21` (centres unmarked) [III-139], for which, on F508delCFTR [1], the EC50 is < 3 µM; the “Maximum % activity (with co-corrector)” value was “++ (≥150 and <350)”. For the same molecule, at F508delCFTR [2], the EC50 is < 3 µM and the Emax was < 50%.

As to `CCC1(C(=O)NS(=O)(=O)Cc2ccccc2)CCc2c(Cl)cccc21` (centres unmarked) [III-140], at F508delCFTR [1], the EC50 was ≥ 10 µM and the “Maximum % activity (with co-corrector)” value is on record as “+ (<150)”. On F508delCFTR [2], the EC50 was ≥ 10 µM and the Emax is < 50%.

For `CCC1(C(=O)NS(=O)(=O)c2cccc3c2C(=O)N(C)C3=O)CCc2c(Cl)cccc21` (centres unmarked) [III-141], at F508delCFTR [1], the EC50 is ≥ 10 µM and the “Maximum % activity (with co-corrector)” value is given as “+ (<150)”. At F508delCFTR [2], the EC50 is ≥ 10 µM and the Emax is < 50%.

Consider `CCC1(C(=O)NS(=O)(=O)c2ccc(OC)cc2)CCc2c(Cl)cccc21` (centres unmarked) [III-142], for which, at F508delCFTR [1], the EC50 fell in the range of 3 to 10 µM; the “Maximum % activity (with co-corrector)” value is “++ (≥150 and <350)”. Besides, on F508delCFTR [2], the EC50 lay within 3 to 10 µM and the Emax was < 50%.

As for `CCC1(C(=O)NS(=O)(=O)c2ccc(Oc3ccccc3)cc2)CCc2c(Cl)cccc21` (centres unmarked) [III-143], at F508delCFTR [1], the EC50 is ≥ 10 µM and the “Maximum % activity (with co-corrector)” value is listed as “+ (<150)”. Further, at F508delCFTR [2], the EC50 was ≥ 10 µM and the Emax is < 50%.

On to `CCC1(C(=O)NS(=O)(=O)c2cccc(C#N)c2)CCc2c(Cl)cccc21` (centres unmarked) [III-144], for which, on F508delCFTR [1], the EC50 was 3 to 10 µM; the “Maximum % activity (with co-corrector)” value was “++ (≥150 and <350)”. For the same molecule, on F508delCFTR [2], the EC50 was ≥ 10 µM and the Emax was < 50%.

Turning to `CCC1(C(=O)NS(=O)(=O)c2cc[nH]n2)CCc2c(Cl)cccc21` (centres unmarked) [III-145], at F508delCFTR [1], the EC50 is 3 to 10 µM; the “Maximum % activity (with co-corrector)” value was “++ (≥150 and <350)”. Besides, on F508delCFTR [2], the EC50 lay in the range of 3 to 10 µM and the Emax was < 50%.

Consider `O=C(NS(=O)(=O)c1cccc2ccccc12)C1(Cc2ccccn2)CCc2c(Cl)cccc21` (centres unmarked) [III-147], for which, at F508delCFTR [1], the EC50 lay in the range of 3 to 10 µM; the “Maximum % activity (with co-corrector)” value is “++ (≥150 and <350)”. Moreover, at F508delCFTR [2], the EC50 lay in the range of 3 to 10 µM and the Emax is < 50%.

On to `COc1ccc(-c2cccc(OC(F)(F)F)c2)c2c1CCCC2C(=O)NS(=O)(=O)c1cccc2ccccc12` (centres unmarked) [III-148], for which, at F508delCFTR [1], the EC50 was < 3 µM and the “Maximum % activity (with co-corrector)” value was “+++ (≥350)”. At F508delCFTR [2], the EC50 is < 3 µM and the Emax is ≥ 150%.

Turning to `CCC1(C(=O)NS(=O)(=O)c2cccc(Cl)c2C(=O)OC)CCc2c(Cl)cccc21` (centres unmarked) [III-149], at F508delCFTR [1], the EC50 was < 3 µM and the “Maximum % activity (with co-corrector)” value is on record as “+ (<150)”. Also, on F508delCFTR [2], the EC50 was ≥ 10 µM and the Emax was < 50%.

Regarding `O=C(NS(=O)(=O)c1cccc2ccccc12)C1CCc2c(Br)ccc(O)c21` (centres unmarked) [III-152], on F508delCFTR [1], the EC50 lay in the range of 3 to 10 µM; the “Maximum % activity (with co-corrector)” value is “++ (≥150 and <350)”. At F508delCFTR [2], the EC50 fell in the range of 3 to 10 µM and the Emax is < 50%.

In the case of `COc1ccc(N2CCOCC2)c2c1CCCC2C(=O)NS(=O)(=O)c1cccc2ccccc12` (centres unmarked) [III-153], at F508delCFTR [1], the EC50 is ≥ 10 µM and the “Maximum % activity (with co-corrector)” value is recorded as “+ (<150)”. In addition, at F508delCFTR [2], the half-maximal effective concentration (EC50) was ≥ 10 µM and the Emax is < 50%.
